Data taken from the supplement of paper PMC11061612.

Experiments:
Assay in all cases: Bliss excess, mean over the matrix (fraction); higher = more synergy
[1] = tested on: CAL-148 (Breast Carcinoma)
Outline: (§1)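 Bliss excess equals the observed combination effect minus the expected value EA + EB − EA·EB, where EA and EB are the effects of each agent alone. Combination Emax is the second-highest inhibition within the matrix. Inhibition was scaled from CellTiter-Glo 2.0 luminescence, with 0 set by vehicle wells and 1 by blank wells, after 72 hours of two-drug dosing of cells plated in 1536-well plates.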

[2] = tested on: KP-1N (Pancreatic Carcinoma)
Outline: as §1

[3] = tested on: Calu-3 (Lung Adenocarcinoma)
Outline: as §1

[4] = tested on: LS-180 (Colorectal Carcinoma)
Outline: as §1

[5] = tested on: MDA-MB-361 (Breast Carcinoma)
Outline: as §1

[6] = tested on: Hs-578-T (Breast Carcinoma)
Outline: as §1

KELLY (Neuroblastoma) = tested on: KELLY (Neuroblastoma)
Outline: as §1

[7] = tested on: HuP-T4 (Pancreatic Carcinoma)
Outline: as §1

[8] = tested on: CaR-1 (Colorectal Carcinoma)
Outline: as §1

[9] = tested on: HT-1376 (Bladder Carcinoma)
Outline: as §1

[10] = tested on: OVCA420 (Ovarian Carcinoma)
Outline: as §1

[11] = tested on: MFE-296 (Endometrial Carcinoma)
Outline: as §1

[12] = tested on: LNCaP-Clone-FGC (Prostate Carcinoma)
Outline: as §1

[13] = tested on: Daoy (Other Solid Carcinomas)
Outline: as §1

[14] = tested on: HCC1806 (Breast Carcinoma)
Outline: as §1

[15] = tested on: KYSE-520 (Esophageal Squamous Cell Carcinoma)
Outline: as §1

NB10 (Neuroblastoma) = tested on: NB10 (Neuroblastoma)
Outline: as §1

[16] = tested on: KURAMOCHI (Ovarian Carcinoma)
Outline: as §1

[17] = tested on: B-CPAP (Thyroid Gland Carcinoma)
Outline: as §1

[18] = tested on: LB831-BLC (Bladder Carcinoma)
Outline: as §1

Structure (SMILES) | Bliss excess [1] | Bliss excess [2] | Bliss excess [3] | Bliss excess [4] | Bliss excess [5] | Bliss excess [6] | Bliss excess (KELLY (Neuroblastoma)) | Bliss excess [7] | Bliss excess [8] | Bliss excess [9] | Bliss excess [10] | Bliss excess [11] | Bliss excess [12] | Bliss excess [13] | Bliss excess [14] | Bliss excess [15] | Bliss excess (NB10 (Neuroblastoma)) | Bliss excess [16] | Bliss excess [17] | Bliss excess [18]
CN(CCO)CC[C@H](CSc1ccccc1)Nc1ccc(S(=O)(=O)NC(=O)c2ccc(N3CCC([C@@H](O)c4ccccc4-c4ccc(Cl)cc4)CC3)cc2)cc1S(=O)(=O)C(F)(F)F [AZD4320] + C1CN(CCC1(C(=O)N[C@@H](CCO)C2=CC=C(C=C2)Cl)N)C3=NC=NC4=C3C=CN4 [Capivasertib] (first compound max 1 µM, 7x7, partner max 3 µM) | 0.0346 | -0.0389 | -0.0149 | -0.0389 | -0.0442 | -0.0198 | -0.0433 | -0.0353 | -0.0668 | -0.0959 | -0.0601 | -0.0255 | -0.0239 | 0.0185 | -0.0078 | -0.0696 | -0.0288 | -0.0393 | -0.0377 | -0.0212
COc1nnc2ccc(N3CCC(c4ccc(OCCN5CCN(C)C(=O)[C@H]5C)cc4)CC3)nn12 [AZD5153] + CCN(CCO)CCCOc1ccc2c(Nc3cc(CC(=O)Nc4cccc(F)c4)[nH]n3)ncnc2c1 [AZD2811] (first compound max 1 µM, 7x7, partner max 1 µM) | -0.0361 | -0.0273 | -0.0303 | -0.111 | -0.0448 | -0.0345 | -0.0406 | -0.0595 | -0.0663 | -0.0381 | -0.0547 | -0.0264 | -0.0081 | -0.0369 | -0.042 | -0.0709 | -0.0289 | -0.0149 | -0.0367 | -0.0647
CCN(CCO)CCCOc1ccc2c(Nc3cc(CC(=O)Nc4cccc(F)c4)[nH]n3)ncnc2c1 [AZD2811] + C[C@@H]1COCCN1C2=NC(=NC(=C2)C3(CC3)[S@](=N)(=O)C)C4=C5C=CNC5=NC=C4 [AZD6738] (first compound max 1 µM, 7x7, partner max 10 µM) | -0.0252 | -0.0189 | -0.0169 | -0.0723 | -0.0816 | -0.0811 | -0.042 | 0.0305 | -0.0528 | -0.0566 | -0.0777 | -0.0728 | -0.0447 | -0.0153 | -0.014 | -0.0323 | -0.056 | -0.0649 | -0.0276 | -0.0744
